Source: US20030109418A1, “Methods for identifying compounds for inhibition of neoplastic lesions, and pharmaceutical compositions containing such compounds” (priority 1999, published 2003)
Where a name gives a salt, the structure may show the parent alone.

Assays:
[1] = system: SW-480 colon adenocarcinoma cells; assay: Apoptosis fold induction protocol (DNA fragmentation ELISA); settings: Homo sapiens
[2] = system: panel of cultured human cell lines derived from various tissue origins; assay: Growth inhibition, neutral red assay, whole panel; format: cell-based; settings: all cell lines of the panel, read-out: GI50 value calculated for all cell lines
Experimental: (§1) Compound I's activity is not confined to activity against colon cancer cell lines or animal models of colon cancer. It has a broad range of anti-neoplastic effects in various neoplastic cell lines. Various types of human cancer cell lines were propagated under sterile conditions in RPMI 1640 medium with 10% fetal bovine serum, 2 mM L-glutamine and sodium bicarbonate. To determine growth inhibitory effects of Compound I, cells were seeded in 96-well plates at a density of 1000 cells per well. Twenty-four hours after plating, the cells were dosed with various concentrations of the free base of Compound I solubilized in DMSO (final concentration 0.1%). The effect of the drug on tumor cell growth was determined using the neutral red cytotoxicity assay following five days of continuous treatment. Neutral red is a dye that is selectively taken up by viable cells by an ATP-dependent transport mechanism.

NCI-H460 = assay: Growth inhibition, neutral red assay, NCI-H460; format: cell-based, human; settings: free base, five days
Experimental: as §1

[3] = system: cGMP PDE purified from human colon HT-29 cultured tumor cells; assay: cGMP PDE inhibition assay; format: biochemical; settings: for IC50: read-out: IC50 for inhibition of cGMP PDE, HT-29 cell enzyme
[4] = target: T1, purified cyclooxygenase (Type 1, COX-I) from ram seminal vesicles (Ovis aries, UniProt P05979); assay: COX inhibition assay, purified cyclooxygenase; format: biochemical; settings: for inhibition at 100 µM: read-out: Cyclooxygenase inhibitory activity, % Inhibition at 100 μM
T1 construct: using purified cyclooxygenase from ram seminal vesicles as described previously; tissue Cayman Chemical, Ann Arbor, Mich; (named in the general protocol only); host or cells: ram seminal vesicles
T1 sequence (P05979 25-600): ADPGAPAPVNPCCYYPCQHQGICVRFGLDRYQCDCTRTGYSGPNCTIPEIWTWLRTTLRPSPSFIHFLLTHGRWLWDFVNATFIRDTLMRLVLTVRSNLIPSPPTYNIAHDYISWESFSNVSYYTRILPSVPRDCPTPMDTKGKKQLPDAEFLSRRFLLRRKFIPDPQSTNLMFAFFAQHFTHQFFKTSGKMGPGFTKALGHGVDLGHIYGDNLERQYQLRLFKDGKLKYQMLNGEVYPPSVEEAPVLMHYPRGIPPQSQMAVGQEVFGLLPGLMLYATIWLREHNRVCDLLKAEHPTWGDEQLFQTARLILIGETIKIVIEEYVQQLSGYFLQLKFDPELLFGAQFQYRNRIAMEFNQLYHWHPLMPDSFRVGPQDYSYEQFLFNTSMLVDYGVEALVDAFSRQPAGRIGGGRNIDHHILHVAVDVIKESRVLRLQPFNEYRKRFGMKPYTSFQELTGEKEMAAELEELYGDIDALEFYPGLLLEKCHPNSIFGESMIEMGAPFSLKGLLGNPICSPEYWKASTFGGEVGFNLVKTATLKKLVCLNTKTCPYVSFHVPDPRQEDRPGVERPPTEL

MDA-MB-231 = assay: Growth inhibition, neutral red assay, MDA-MB-231; format: cell-based, human; settings: free base, five days
Experimental: as §1

[5] = system: PKG activity in HCT116 colon cancer cells; assay: PKG assay of lysates of drug-treated HCT116 cells; format: cell-based
Text: To test the effect of cGMP-specific PDE inhibition on neoplasia containing the β-catenin mutation, HCT116 colon cancer cells were employed. HCT116 is known to contain the β-catenin mutation, but is known not to contain the APC mutation.
The same procedure is used to grow the HCT116 cells as is used in the SW480 procedure described above. In this experiment, only exisulind and controls were used.

[6] = system: premalignant lesions in mouse mammary gland organ culture; assay: Mammary gland organ culture model; format: cell-based; for mammary gland organ culture: key: −: Not active; +: Slightly active; ++: Moderately active; +++: Strongly active; ++++: Highly active

## CC1=C(CC(=O)NCc2ccccc2)c2cc(F)ccc2/C1=C\c1ccncc1 [Compound I, (Z)-5-fluoro-2-methyl-(4-pyridylidene)-3-(N-benzyl)indenylacetamide hydrochloride]
[1]; SW480, read-out: DNA fragmentation EC50
  EC50: 15000 nM
[2]
  GI50: 1000 to 2000 nM
NCI-H460; Homo sapiens, NCI-H460, 120 h
  GI50: 1.9 µM
NCI-H460
  GI90 μM, NCI-H460: 30.0 µM
[3]
  IC50: 680 nM
[4]
  inhibition at 100 µM: < 25%
MDA-MB-231; Homo sapiens, MDA-MB-231, 120 h
  GI50: 1.8 µM
MDA-MB-231
  GI90 μM, MDA-MB-231: 77.6 µM

## CC1=C(CC(=O)O)c2cc(F)ccc2/C1=C\c1ccc(S(C)(=O)=O)cc1 [Exisulind, 5-fluoro-2-methyl-1-(p-methylsulfonylbenzylidene)-3-indenylacetic acid]
[5]
  PKG activation relative to controls: yielded PKG that was phosphorylated to a greater extent than the corresponding controls
[1]; SW480, read-out: Apoptosis-inducing activity, Fold induction at 100 μM, 100 μM, cell line not given
  fold induction at 100 µM: < 2
[3]; 10 μM
  cGMP PDE inhibitory activity, % Inhibition at 10 μM: 39%
[3]; qualitative activity profile
  PDE Inhibition: ++
[3]
  IC50: 56000 nM
[4]; qualitative activity profile
  COX Inhibition: −
[4]
  inhibition at 100 µM: < 25%
[6]; mammary gland organ culture
  inhibition of the formation of premalignant lesions: effectively inhibit the formation of premalignant lesions
[6]; qualitative activity profile
  Mammary Gland Organ Culture: +++
